Results: US20250059164A1, “IRAK DEGRADERS AND USES THEREOF” (Kymera Therapeutics, Inc., priority 2023, published 2025)

Target: T1, IRAK4 (Homo sapiens, UniProt Q9NWZ3)
T1 construct: endogenous in cells; host or cells: OCI-LY10
T1 sequence (Q9NWZ3 1-460): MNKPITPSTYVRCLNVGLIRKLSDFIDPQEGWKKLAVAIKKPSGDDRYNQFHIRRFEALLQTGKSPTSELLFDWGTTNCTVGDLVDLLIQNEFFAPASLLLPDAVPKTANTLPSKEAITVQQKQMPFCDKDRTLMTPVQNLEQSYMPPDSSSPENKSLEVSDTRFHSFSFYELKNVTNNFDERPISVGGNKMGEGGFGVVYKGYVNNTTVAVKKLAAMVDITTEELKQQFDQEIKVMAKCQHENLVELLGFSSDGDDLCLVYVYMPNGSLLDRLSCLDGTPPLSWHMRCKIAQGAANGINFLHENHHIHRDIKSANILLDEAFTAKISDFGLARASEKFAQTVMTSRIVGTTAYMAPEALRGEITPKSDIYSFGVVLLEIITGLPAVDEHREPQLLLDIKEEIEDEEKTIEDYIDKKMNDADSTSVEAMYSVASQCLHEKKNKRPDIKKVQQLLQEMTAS
Experiment: IRAK4 MSD degradation in OCI-LY10
Type: cell-based
Conditions: OCI-LY10 cells, 24 hrs, Meso Scale Discovery
Experimental: Degradation of IRAK4 in OCI-LY10 was quantitatively measured using Meso Scale Discovery technology. […] Compounds were then added to the assay plates with a final top concentration of 1 to 10 μM in a 1:3 dilution series with total of 8 doses. The assay plates were then incubated for 4 to 24 hours at 37° C. under 5% CO2. […] To prepare MSD assay plates (Meso Scale Discovery Catalog number L15XA-3), the plates were coated with 2 μg/mL capture antibody (mouse Anti-IRAK4 antibody [2H9], ab119942) in PBS, at 40 μL/well. […] Cell lysates were then added to MSD assay plates and the plates were incubated at room temperature for 1 hour. The plates were then washed 3 times with 150 μL/well TBST buffer and 25 μL/well primary detection antibody (rabbit Anti-IRAK4 antibody [Y279], from Abcam. Catalog number ab32511, 1 μg/mL). The assay plates were then incubated at room temperature for 1 hour, washed 3 times with 150 μL/well TBST buffer and 25 μL/well secondary detection antibody, SULFO-TAG anti-rabbit antibody were added (anti-rabbit antibody from Meso Scale Discovery, Catalog number R32AB-1, 1 μg/mL). The assay plates were then incubated at room temperature for 1 hour, washed 3 times with 150 μL/well TBST buffer, and 150 μL/well MSD reading buffer (Meso Scale Discovery catalog number R92TC-2) was added. The plates were then analyzed by a MSD reader (Meso Scale Discovery, Model Quick Plex SQ 120). The data was then analyzed by software Prism 7.0 from GraphPad and the dose-depended IRAK4 degradation were fit using a three-parameter logistic equation to calculate DC50.
The letter codes for IRAK4 DC50 include: A (<0.01 μM); B (0.01 to <0.1 μM); C (0.1 to 0.2 μM); D (>0.2 μM) and E (not tested).

SMILES	DC50
Cn1nc(N2CCC(=O)NC2=O)c2cccc(N3CC(CN4CCN(C[C@H]5CC[C@H](n6cc(NC(=O)c7cnn8ccc(N9C[C@H]%10C[C@@H]9CO%10)nc78)c(C(F)F)n6)CC5)CC4)C3)c21 [I-91]	10 to 100 nM
Cc1nn(C2CCC(=O)NC2=O)c2cccc(N3CCN(C[C@@H]4COC5(C4)CN(C[C@H]4CC[C@H](n6cc(NC(=O)c7cnn8ccc(N9C[C@H]%10C[C@@H]9CO%10)nc78)c(C(F)F)n6)CC4)C5)CC3)c12 (stereo partly shown) [I-42]	< 10 nM
COc1cc2nc([C@H]3CC[C@H](CN(C)[C@@H]4CCN(c5cccc6c5n(C)c(=O)n6C5CCC(=O)NC5=O)C[C@H]4F)CC3)cn2cc1NC(=O)c1cncc(C(F)(F)F)n1 (single isomer, unassigned) [I-317]	< 10 nM
Cn1c(=O)n(C2CCC(=O)NC2=O)c2cccc(C#CCN3CCN(C[C@H]4CC[C@H](n5cc(NC(=O)c6cnn7ccc(N8C[C@H]9C[C@@H]8CO9)nc67)c(C(F)F)n5)CC4)[C@@H](C(F)(F)F)C3)c21 (stereo partly shown) [I-320]	10 to 100 nM
O=C1CCN(c2cncc3c(N4CC(CO[C@H]5CCN(C[C@H]6CC[C@H](n7cc(NC(=O)c8cnn9ccc(N%10C[C@H]%11C[C@@H]%10CO%11)nc89)c(C(F)F)n7)CC6)C[C@@H]5F)C4)cccc23)C(=O)N1 (single isomer, unassigned) [I-75]	10 to 100 nM
O=C1CCC(Nc2ccc(N3CC(O)(CN4CCN(C[C@H]5CC[C@H](n6cc(NC(=O)c7cnn8ccc(N9C[C@H]%10C[C@@H]9CO%10)nc78)c(C(F)F)n6)CC5)CC4)C3)cc2)C(=O)N1 (stereo partly shown) [I-72]	10 to 100 nM
Cc1nn(C2CCC(=O)NC2=O)c2cc(F)cc(N3CC(CN4CCN(C[C@H]5CC[C@H](n6cc(NC(=O)c7cnn8ccc(N9C[C@H]%10C[C@@H]9CO%10)nc78)c(C(F)F)n6)CC5)CC4)C3)c12 (stereo partly shown) [I-92]	< 10 nM
CN(C[C@H]1C[C@H](n2cc(NC(=O)c3cnn4ccc(N5C[C@H]6C[C@@H]5CO6)nc34)c(C(F)F)n2)C1)[C@H]1CCN(c2cccc3c2n(C)c(=O)n3C2CCC(=O)NC2=O)C[C@@H]1F (single isomer, unassigned) [I-6]	< 10 nM
O=C1CCC(Nc2cccc(N3CC(CO[C@@H]4CCN(C[C@H]5CC[C@H](n6cc(NC(=O)c7cnn8ccc(N9C[C@H]%10C[C@@H]9CO%10)nc78)c(C(F)F)n6)CC5)C[C@@H]4F)C3)c2)C(=O)N1 (stereo partly shown) [I-5]	10 to 100 nM
COc1ccc2c(c1N1CC[C@@H](N(C)C[C@H]3CC[C@H](n4cc(NC(=O)c5cnn6cccnc56)c(C(F)F)n4)CC3)C(F)(F)C1)n(C)c(=O)n2C1CCC(=O)NC1=O (single isomer, unassigned) [I-204]	10 to 100 nM
Cn1c(=O)n(C2CCC(=O)NC2=O)c2cccc([C@@H]3CCN(C[C@H]4CC[C@H](c5nc6ccc(NC(=O)c7cncc(C(F)(F)F)n7)cc6o5)CC4)C[C@H]3F)c21 (stereo partly shown) [I-295]	> 200 nM
O=C1CCC(Nc2ccc(N3CC(CN4CCN(C[C@H]5CC[C@H](n6cc(NC(=O)c7cnn8ccc(N9C[C@H]%10C[C@@H]9CO%10)nc78)c(C(F)F)n6)CC5)CC4)C3)cc2Cl)C(=O)N1 (stereo partly shown) [I-16]	10 to 100 nM
Cc1nn(C2CCC(=O)NC2=O)c2cccc([C@@H]3CCN(C[C@H]4CC[C@H](n5cc6cc(NC(=O)c7cccc(C(F)(F)F)n7)ncc6n5)CC4)C[C@H]3F)c12 (stereo partly shown) [I-187]	10 to 100 nM
COc1cc2nc([C@H]3CC[C@H](CN4CC[C@@H](c5cccc6c5n(C)c(=O)n6C5CCC(=O)NC5=O)[C@H](F)C4)CC3)sc2cc1NC(=O)c1cccc(C(F)(F)F)n1 (single isomer, unassigned) [I-78]	100 to 200 nM
O=C1CCC(Nc2ccc(N3CC(CO[C@@H]4CCN(C[C@H]5CC[C@H](n6cc(NC(=O)c7cnn8ccc(N9C[C@H]%10C[C@@H]9CO%10)nc78)c(C(F)F)n6)CC5)C[C@@H]4F)C3)cc2)C(=O)N1 (single isomer, unassigned) [I-73]	10 to 100 nM
Cn1c(=O)n(C2CCC(=O)NC2=O)c2ccc([C@@H]3CCN(C[C@H]4CC[C@H](n5cc6cc(NC(=O)c7cncc(C(F)(F)F)n7)ccc6n5)CC4)C[C@H]3F)cc21 (single isomer, unassigned) [I-349]	> 200 nM
Cc1nn(C2CCC(=O)NC2=O)c2ccc(F)c(N3CC(CN4CCN(C[C@H]5CC[C@H](n6cc(NC(=O)c7cnn8ccc(N9C[C@H]%10C[C@@H]9CO%10)nc78)c(C(F)F)n6)CC5)CC4)C3)c12 (stereo partly shown) [I-287]	< 10 nM
CN(C[C@H]1CC[C@H](n2cc(NC(=O)c3cnn4cccnc34)c(C(F)F)n2)CC1)[C@@H]1CCN(c2cccc3c2n(C)c(=O)n3C2CCC(=O)NC2=O)CC1(F)F (stereo partly shown) [I-202]	10 to 100 nM

The next lines start with the values.

DC50	SMILES
> 200 nM	COc1cc2nc([C@H]3CC[C@H](CN4CCC5(CCN(c6cccc7c6n(C)c(=O)n7C6CCC(=O)NC6=O)CC5)C(F)(F)C4)CC3)cn2cc1NC(=O)c1cncc(C#N)c1 (stereo partly shown) [I-168]
< 10 nM	CN(C[C@H]1CC[C@H](n2cc(NC(=O)c3cnn4cccnc34)c(C(F)F)n2)CC1)[C@H]1CCN(c2cccc3c2n(C)c(=O)n3C2CCC(=O)NC2=O)C[C@H]1F (single isomer, unassigned) [I-145]
< 10 nM	Cn1c(=O)n(C2CCC(=O)NC2=O)c2cccc([C@@H]3CCN(C[C@H]4CC[C@H](c5nc6cc(C(C)(C)O)c(NC(=O)c7cncc(C(F)(F)F)n7)cc6o5)CC4)CC3(F)F)c21 (single isomer, unassigned) [I-327]
< 10 nM	Cn1c(=O)n(C2CCC(=O)NC2=O)c2cccc(N3CCC4(CCN(C[C@H]5CC[C@H](n6cc7cc(NC(=O)c8cncc(C(F)(F)F)n8)c(C(C)(C)O)cc7n6)CC5)CC4(F)F)CC3)c21 (stereo partly shown) [I-354]
10 to 100 nM	Cn1c(=O)n(C2CCC(=O)NC2=O)c2cccc(N3CCN(C[C@H]4CC[C@H](n5cc6cc(NC(=O)c7cncc(C(F)(F)F)n7)ccc6n5)CC4)C[C@H]3C(F)(F)F)c21 (single isomer, unassigned) [I-325]
< 10 nM	Cn1c(=O)n(C2CCC(=O)NC2=O)c2cccc([C@@H]3CCN(C[C@H]4CC[C@H](n5cc6cc(NC(=O)c7cncc(C(F)(F)F)n7)ccc6n5)CC4)CC3(F)F)c21 (single isomer, unassigned) [I-179]
< 10 nM	C[C@H]1CN(c2ccn3ncc(C(=O)Nc4cn([C@H]5CC[C@H](CN(C)[C@H]6CCN(c7cccc8c7n(C)c(=O)n8C7CCC(=O)NC7=O)C[C@H]6F)CC5)nc4C(F)F)c3n2)CCO1 (stereo partly shown) [I-51]
> 200 nM	Cn1c(=O)n(C2CCC(=O)NC2=O)c2cccc([C@@H]3CCN(C[C@H]4CC[C@H](n5cc6cc(NC(=O)c7cnnc(C(F)(F)F)c7)ccc6n5)CC4)C[C@H]3F)c21 (stereo partly shown) [I-316]
< 10 nM	C[C@H]1CN(c2ccn3ncc(C(=O)Nc4cn([C@H]5CC[C@H](CN(C)C6CCN(c7cccc8c7n(C)c(=O)n8C7CCC(=O)NC7=O)C[C@@H]6F)CC5)nc4C(F)F)c3n2)CCO1 (stereo partly shown) [I-26]
10 to 100 nM	CN(C[C@H]1CC[C@H](n2cc3cc(NC(=O)c4cccc(C(F)(F)F)n4)ccc3n2)CC1)[C@H]1CCN(c2cccc3c2n(C)c(=O)n3C2CCC(=O)NC2=O)C[C@@H]1F (stereo partly shown) [I-33]
> 200 nM	Cc1cc(C(=O)Nc2ccc3nn([C@H]4CC[C@H](CN5CCC6(CCN(c7cccc8c7n(C)c(=O)n8C7CCC(=O)NC7=O)CC6)C(F)(F)C5)CC4)cc3c2)nc(C(F)(F)F)c1 (stereo partly shown) [I-403]
> 200 nM	COc1cc(C(=O)Nc2ccc3nn([C@H]4CC[C@H](CN5CCC6(CCN(c7cccc8c7n(C)c(=O)n8C7CCC(=O)NC7=O)CC6)C(F)(F)C5)CC4)cc3c2)nc(C(F)(F)F)c1 (stereo partly shown) [I-398]
< 10 nM	Cn1c(=O)n(C2CCC(=O)NC2=O)c2cccc([C@@H]3CCN(C[C@H]4CC[C@H](n5cc6cc(NC(=O)c7coc(C(F)(F)F)n7)ccc6n5)CC4)C[C@H]3F)c21 (stereo partly shown) [I-165]
< 10 nM	Cn1c(=O)n([C@H]2CCC(=O)NC2=O)c2cccc(N3CCC4(CCN(C[C@H]5CC[C@H](n6cc7cc(NC(=O)c8cncc(C#N)c8)c(C(C)(C)O)cc7n6)CC5)CC4(F)F)CC3)c21 (single isomer, unassigned) [I-225]
< 10 nM	Cn1c(=O)n([C@H]2CCC(=O)NC2=O)c2ccc(F)c([C@@H]3CCN(C[C@H]4CC[C@H](n5cc6cc(NC(=O)c7cncc(C#N)c7)c(C(C)(C)O)cc6n5)CC4)CC3(F)F)c21 (single isomer, unassigned) [I-232]
< 10 nM	Cn1nc([C@H]2CCC(=O)NC2=O)c2cccc([C@@H]3CCN(C[C@H]4CC[C@H](n5cc6cc(NC(=O)c7cncc(C#N)c7)c(C(C)(C)O)cc6n5)CC4)CC3(F)F)c21 (single isomer, unassigned) [I-417]
